Measurements: the supplement of paper PMC10307832

compound: C[C@@H](Oc1cc(-c2cnn(C3CCNCC3)c2)cnc1N)c1c(Cl)ccc(F)c1Cl [Crizotinib] + COc1cccc2cc(-c3nc([C@H]4CC[C@H](C(=O)O)CC4)n4ncnc(N)c34)[nH]c12 [OSI-027] (partner 0.5 µM); experiment: relative viability (nuclei count vs DMSO), 5 days (fraction); higher = more cells survive; settings: first compound 0.1 µM
How it was run: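 Cells from lung cancer lines were seeded into 1536-well plates and, one day later, dosed by pin tool. Treatments were either a single drug or a fixed dose of an anchor drug with five library-drug doses (not always all listed) in √10 steps. After 5 days, nuclei were stained in a one-step fixation (final 0.05% Triton X-100, 1% formaldehyde, 1 ug/ml Hoechst) and counted on 4× images, and relative viability is the treated-to-vehicle nuclei ratio, as the median of duplicate plates.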

Q: For NCI-H1437, which relative viability is on record?
A: 0.824

Q: How did the relative viability turn out when NCI-H1650 was run?
A: 0.585

Q: NCI-H1651 was tested. Which relative viability did it give?
A: 0.727

Q: NCI-H1666 was tested. Which relative viability did it give?
A: 0.837

Q: How did the relative viability turn out when NCI-H1734 was run?
A: 0.473

Q: For NCI-H1755, which relative viability is on record?
A: 0.625

Q: Which relative viability does the source give for NCI-H1915 here?
A: 0.636

Q: With NCI-H1944 as the cell line, how does the relative viability read?
A: 0.402

Q: How did the relative viability turn out when NCI-H1975 was run?
A: 0.755

Q: How did the relative viability turn out when NCI-H1993 was run?
A: 0.543

Q: How did the relative viability turn out when NCI-H2009 was run?
A: 0.64

Q: Which relative viability does the source give for NCI-H2023 here?
A: 0.359

Q: For NCI-H2085, which relative viability is on record?
A: 0.66

Q: For NCI-H2087, which relative viability is on record?
A: 0.548

Q: For NCI-H2126, which relative viability is on record?
A: 0.714

Q: How did the relative viability turn out when NCI-H2170 was run?
A: 0.741

Q: With NCI-H2228 as the cell line, how does the relative viability read?
A: 0.54

Q: NCI-H2347 was tested. Which relative viability did it give?
A: 0.417

Q: How did the relative viability turn out when NCI-H2405 was run?
A: 0.587

Q: How did the relative viability turn out when NCI-H3122 was run?
A: 0.79

Q: For PC-3 [JPC-3], which relative viability is on record?
A: 0.76

Q: For PC-14, which relative viability is on record?
A: 0.8

Q: How did the relative viability turn out when RERF-LC-KJ was run?
A: 0.521

same assay, conditions: first compound 0.3162 µM

Q: For NCI-H358, which relative viability is on record?
A: 0.664

Q: Which relative viability does the source give for NCI-H460 here?
A: 0.6

Q: How did the relative viability turn out when NCI-H520 was run?
A: 0.27

Q: How did the relative viability turn out when NCI-H596 was run?
A: 0.564

Q: With NCI-H647 as the cell line, how does the relative viability read?
A: 0.531

Q: How did the relative viability turn out when NCI-H650 was run?
A: 0.423

Q: For NCI-H661, which relative viability is on record?
A: 0.711

Q: Which relative viability does the source give for NCI-H838 here?
A: 0.393

Q: Which relative viability does the source give for NCI-H1355 here?
A: 0.369

Q: Which relative viability does the source give for NCI-H1395 here?
A: 0.496

Q: With NCI-H1650 as the cell line, how does the relative viability read?
A: 0.54

Q: Which relative viability does the source give for NCI-H1651 here?
A: 0.73

Q: With NCI-H1666 as the cell line, how does the relative viability read?
A: 0.903

Q: How did the relative viability turn out when NCI-H1755 was run?
A: 0.531

Q: Which relative viability does the source give for NCI-H1944 here?
A: 0.391

Q: How did the relative viability turn out when NCI-H1975 was run?
A: 0.754

Q: NCI-H1993 was tested. Which relative viability did it give?
A: 0.516

Q: Which relative viability does the source give for NCI-H2009 here?
A: 0.594

Q: Which relative viability does the source give for NCI-H2023 here?
A: 0.297

Q: For NCI-H2126, which relative viability is on record?
A: 0.654

Q: Which relative viability does the source give for NCI-H2170 here?
A: 0.573

Q: For NCI-H2228, which relative viability is on record?
A: 0.272

Q: NCI-H2347 was tested. Which relative viability did it give?
A: 0.386

Q: How did the relative viability turn out when NCI-H2405 was run?
A: 0.669

Q: Which relative viability does the source give for NCI-H3122 here?
A: 0.218

Q: PC-3 [JPC-3] was tested. Which relative viability did it give?
A: 0.683

Q: Which relative viability does the source give for PC-14 here?
A: 0.867

Q: With RERF-LC-KJ as the cell line, how does the relative viability read?
A: 0.542

same assay, conditions: first compound 1 µM

Q: How did the relative viability turn out when NCI-H358 was run?
A: 0.772

Q: Which relative viability does the source give for NCI-H460 here?
A: 0.708

Q: For NCI-H520, which relative viability is on record?
A: 0.258

Q: How did the relative viability turn out when NCI-H596 was run?
A: 0.67

Q: For NCI-H647, which relative viability is on record?
A: 0.663

Q: With NCI-H650 as the cell line, how does the relative viability read?
A: 0.59

Q: NCI-H661 was tested. Which relative viability did it give?
A: 0.663

Q: Which relative viability does the source give for NCI-H727 here?
A: 0.551

Q: NCI-H838 was tested. Which relative viability did it give?
A: 0.392

Q: For NCI-H1355, which relative viability is on record?
A: 0.361

Q: Which relative viability does the source give for NCI-H1395 here?
A: 0.563

Q: For NCI-H1650, which relative viability is on record?
A: 0.569

Q: NCI-H1651 was tested. Which relative viability did it give?
A: 0.8

Q: How did the relative viability turn out when NCI-H1666 was run?
A: 0.855

Q: NCI-H1734 was tested. Which relative viability did it give?
A: 0.555

Q: Which relative viability does the source give for NCI-H1755 here?
A: 0.644

Q: Which relative viability does the source give for NCI-H1915 here?
A: 0.608

Q: How did the relative viability turn out when NCI-H1944 was run?
A: 0.397

Q: Which relative viability does the source give for NCI-H1975 here?
A: 0.721

Q: NCI-H1993 was tested. Which relative viability did it give?
A: 0.563

Q: NCI-H2009 was tested. Which relative viability did it give?
A: 0.642

Q: How did the relative viability turn out when NCI-H2023 was run?
A: 0.329

Q: For NCI-H2085, which relative viability is on record?
A: 0.748

Q: With NCI-H2087 as the cell line, how does the relative viability read?
A: 0.327

Q: For NCI-H2126, which relative viability is on record?
A: 0.621

Q: How did the relative viability turn out when NCI-H2170 was run?
A: 0.691

Q: How did the relative viability turn out when NCI-H2228 was run?
A: 0.164
